Measured values taken from US6132711A, “Enzymatic antioxidant of allene oxide for lipid peroxidation in biological systems” (Arizona Board of Regents, priority 1997, dated 2000).
Values joined by “and” are separate entries in the source; they are usually repeats but may differ in a detail not shown here. Equal values may be shown once.

What was measured:
AOS [1] = target: T1, AOS (Parthenium argentatum, UniProt Q40778); details: rubber particles, 1 mM ASA plus 1% antioxidant
T1 sequence (Q40778 1-473): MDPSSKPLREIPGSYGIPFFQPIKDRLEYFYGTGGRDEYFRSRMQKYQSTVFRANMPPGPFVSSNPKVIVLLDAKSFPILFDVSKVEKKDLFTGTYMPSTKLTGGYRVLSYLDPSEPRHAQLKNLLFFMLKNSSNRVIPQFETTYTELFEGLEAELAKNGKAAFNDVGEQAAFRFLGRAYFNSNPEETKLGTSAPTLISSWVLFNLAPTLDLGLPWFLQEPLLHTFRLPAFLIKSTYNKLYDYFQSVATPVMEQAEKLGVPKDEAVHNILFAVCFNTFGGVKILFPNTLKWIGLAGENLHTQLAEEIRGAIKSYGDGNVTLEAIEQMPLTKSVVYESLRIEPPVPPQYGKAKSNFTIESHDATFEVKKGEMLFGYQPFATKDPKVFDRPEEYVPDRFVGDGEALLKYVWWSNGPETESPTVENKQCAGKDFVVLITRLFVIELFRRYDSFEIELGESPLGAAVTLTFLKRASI

AOS [2] = target: T1, AOS; assay: Fluorescence spectroscopy of rubber particles incubated with AOS inhibitors; type: biochemical, guayule; design: from tissue; host or cells: washed rubber particles of guayule, carrying the endogenous AOS; details: native rubber particles incubated with 1 mM inhibitor
Method: Rubber particle suspensions containing approximately 5×10^10 particles ml^-1 or 100 μg μl^-1 rubber were extracted for lipids and analyzed according to Yao et al., J Cell Biochem 51: 488-494 (1993); Eldred, Anal. Biochem. 64: 23-36 (1987), Malshet et al., Lipids 9: 328-332 (1974) and above (see sec. 8.1) using a FluoroMax spectrofluoromoeter (JY/SPEX Instruments SA, Inc.) with an excitation maxima of 300 nm and an emission maxima of 405 nm. Background fluorescence was automatically subtracted. […] The effect of pH on relative fluorescence spectroscopy was performed. The effect of pH on relative fluorescence intensities was also determined on lipids extracted from rubber particle lipids according to Malshet et al., Lipids 9: 328-332 (1974).

AOS [3] = target: T1, AOS; assay: Superoxide/colorimetry (riboflavin/TEMED/NBT) assay; details: for NBT color after superoxide: rubber particles incubated with inhibitor
Method: A 1-5 μl suspension of fatty acids or rubber particles (at 100 μg μl^-1) was added directly to 200 μl 50 mM potassium phosphate buffer, pH 8.0 containing 2.8 μM riboflavin and 28 mM tetramethyllethylenediamine (TEMED). […] Superoxide was generated by exposing the combined particles and riboflavin/TEMED solution to light, provided by a 100 W bulb, spaced 30 cm from the suspension, for 10 minutes. The degree of reduction was then determined by adding 200 μl 50 mM potassium phosphate buffer, pH 8.0 containing 2.45 mM nitroblue tetrazolium (NBT) and monitoring for 10 min. Reduction of NBT caused a yellow to blue color change. The effect of CO on AOS inhibition and its reversal by exposure to high light was tested by placing the CO and O2 treated suspension directly in front of a water-cooled, slide projector lamp and exposing the mixture to bright light for 1, 5 or 10 min before performing the NBT assay.
If SOD is present, NBT remains yellow. […] If AOS were active, rubber particles would be protected from peroxidation and NBT would be reduced by superoxide resulting in a blue color. However, if AOS were inactivated, then rubber particles would act as a sink for superoxide and NBT would not be reduced to blue tetrasodium,or would be reduced at a slower rate. For this assay to work, endogenous SOD must not be present in rubber particles.

rubber transferase (RuT) = assay: Rubber transferase assay in washed rubber particles ([14C]-IPP incorporation); type: biochemical, guayule; design: inhibition of RuT activity / inhibition of rubber biosynthesis: concentration or dose not given beside the values
Method: RuT assays were performed according to Cornish and Backhaus, Phytochemistry 29: 3809-3813 (1990) using a final reaction volume of 500 μl containing, at final concentration, 3.5 mM MgCl2, 2.5 mM MnCl2 26.7 μM FPP, 85 μM IPP and 1.48 μCi[^14 C]-IPP (sp. act. 57 mCi mM^-1 NEN DuPont) in 50 mM potassium phosphate buffer, pH 8.0. The reaction was initiated by the addition of 200 μl of fresh, triple-washed rubber particle suspensions containing 10-20 mg rubber. Control reactions were made to test IPP incorporation into rubber by omitting FPP or adding 50 mM EDTA to the reaction (Cornish and Backhaus, Phytochem. 29: 3809-3813 (1990)). To control AOS activity, one or more of the following was added to the reaction mix (final concentration): 0.5 to 2 mM SA, 0.5 to 2 mM ASA, 11.2 μM riboflavin plus 11.2 mM TEMED, 0.003% H2 O2, 2.0 U type II porcine pancreatic lipase (Sigma #L-3126) or 9450 U type V soybean lipoxygenase (Sigma #L-6632). These additions were made directly to the washed rubber particles and incubated for 20 min before adding to them to the reaction mix. In reactions that required dark conditions (to prevent the formation of superoxide), assay tubes were foil wrapped. […] H2 O2 was added directly to the particles and incubated for at least 20 min before adding SA or ASA. All RuT assays were run at 15° C. for 16 hours and activity was determined according to Cornish and Backhaus, Phytochemistry 29: 3809-3813 (1990) using liquid scintillation spectroscopy with toluene-based scintillant.

Molecule: Cc1cc(C(C)(C)C)c(O)c(C(C)(C)C)c1 [BHT]
- fluorescence over 24 hr, AOS inhibited and antioxidant present (AOS [1]): slight increase in fluorescence

Molecule: OCc1ccccc1O[C@@H]1O[C@H](CO)[C@@H](O)[C@H](O)[C@H]1O [SAL, salicin]
- fluorescence of rubber particles (AOS [2]): did not fluoresce

Molecule: [C-]#[O+] [CO, carbon monoxide]
- restoration of AOS activity (AOS [3]; CO-bound-AOS in rubber particles, high light 1 min): partial restoration of AOS
- restoration of AOS activity (AOS [3]; CO-bound-AOS in rubber particles, high light 5 min): maximum restoration of AOS activity
- AOS activity (AOS [3]; CO-bound-AOS in rubber particles, more than 5 min high light): reduction in AOS activity
- NBT color when CO inhibition was reversed by strong light (AOS [3]; CO-treated rubber particles, strong light): grayish yellow
- NBT color after superoxide (AOS [3]): yellow

Molecule: O=C(O)c1cc(S(=O)(=O)O)ccc1O [5SSA, 5-sulfosalicylic acid]
- fluorescence of rubber particles (AOS [2]): did not fluoresce

Molecule: O=C(O)c1ccccc1O [SA, salicylic acid]
- drop in RuT activity (rubber transferase (RuT); 1 mM SA alone, 960 min): 10-30%
- RuT activity (rubber transferase (RuT); 1 mM SA alone, Experiment 1): 402.5 ± 18.2 nmol IPP mg^-1 dry rubber 16 hr^-1
- RuT activity (rubber transferase (RuT); 1 mM SA alone, Experiment 2): 320.4 ± 4.5 nmol IPP mg^-1 dry rubber 16 hr^-1
- RuT activity (rubber transferase (RuT); 1 mM SA alone, Experiment 3): 315.9 ± 10.6 nmol IPP mg^-1 dry rubber 16 hr^-1
- RuT activity (rubber transferase (RuT); 1 mM inhibitor, riboflavin/TEMED + light (superoxide)): 74.2 ± 1.29 nmol IPP mg^-1 dry rubber 16 hr^-1 and 98.3 ± 1.56 nmol IPP mg^-1 dry rubber 16 hr^-1 and 74.2 ± 1.3 nmol IPP mg^-1 dry rubber 16 hr^-1
- RuT activity (rubber transferase (RuT); 1.5 mM inhibitor, no superoxide (dark)): 236.7 ± 3.0 nmol IPP mg^-1 dry rubber 16 h
- RuT activity (rubber transferase (RuT); 1.5 mM inhibitor, superoxide (light)): 105.3 ± 3.2 nmol IPP mg^-1 dry rubber 16 h
- RuT activity (rubber transferase (RuT); 2 mM SA, photo reduced and non-photo reduced riboflavin/TEMED): severely inhibited
- RuT activity (rubber transferase (RuT); 2 mM inhibitor, no superoxide (dark)): 25.1 ± 1.2 nmol IPP mg^-1 dry rubber 16 h
- RuT activity (rubber transferase (RuT); 2 mM inhibitor, superoxide (light)): 18.5 ± 9.24 nmol IPP mg^-1 dry rubber 16 hr^-1
- inhibition of RuT activity (rubber transferase (RuT); salicylate + H2O2 in place of superoxide): 89%
- inhibition of RuT activity (rubber transferase (RuT); salicylate + non-photoreduced riboflavin/TEMED (no superoxide), compared to controls): 20%
- inhibition of RuT activity (rubber transferase (RuT); salicylate + superoxide (riboflavin/TEMED plus light)): 88%
- NBT color after superoxide (AOS [3]): yellow
- fluorescence of rubber particles (AOS [2]): Identical fluorescence patterns

Molecule: Cc1c(C)c2c(c(C)c1O)CCC(C)(CCCC(C)CCCC(C)CCCC(C)C)O2 (stereo not drawn) [α-tocopherol]
- fluorescence over 24 hr, AOS inhibited and antioxidant present (AOS [1]): slight increase in fluorescence

B1: lipoxygenase: type V soybean lipoxygenase (Sigma #L-6632) (protein, UniProt P08170 1-839, looked up)
Seed linoleate …: MFSAGHKIKGTVVLMPKNELEVNPDGSAVDNLNAFLGRSVSLQLISATKADAHGKGKVGKDTFLEGINTSLPTLGAGESAFNIHFEWDGSMGIPGAFYIKNYMQVEFFLKSLTLEAISNQGTIRFVCNSWVYNTKLYKSVRIFFANHTYVPSETPAPLVSYREEELKSLRGNGTGERKEYDRIYDYDVYNDLGNPDKSEKLARPVLGGSSTFPYPRRGRTGRGPTVTDPNTEKQGEVFYVPRDENLGHLKSKDALEIGTKSLSQIVQPAFESAFDLKSTPIEFHSFQDVHDLYEGGIKLPRDVISTIIPLPVIKELYRTDGQHILKFPQPHVVQVSQSAWMTDEEFAREMIAGVNPCVIRGLEEFPPKSNLDPAIYGDQSSKITADSLDLDGYTMDEALGSRRLFMLDYHDIFMPYVRQINQLNSAKTYATRTILFLREDGTLKPVAIELSLPHSAGDLSAAVSQVVLPAKEGVESTIWLLAKAYVIVNDSCYHQLMSHWLNTHAAMEPFVIATHRHLSVLHPIYKLLTPHYRNNMNINALARQSLINANGIIETTFLPSKYSVEMSSAVYKNWVFTDQALPADLIKRGVAIKDPSTPHGVRLLIEDYPYAADGLEIWAAIKTWVQEYVPLYYARDDDVKNDSELQHWWKEAVEKGHGDLKDKPWWPKLQTLEDLVEVCLIIIWIASALHAAVNFGQYPYGGLIMNRPTASRRLLPEKGTPEYEEMINNHEKAYLRTITSKLPTLISLSVIEILSTHASDEVYLGQRDNPHWTSDSKALQAFQKFGNKLKEIEEKLVRRNNDPSLQGNRLGPVQLPYTLLYPSSEEGLTFRGIPNSISI
- RuT activity (rubber transferase (RuT); lipoxygenase alone): activity similar to positive controls
- RuT activity (rubber transferase (RuT); lipoxygenase alone, listed as Lipoxygenase): did not appear to affect RuT activity
- inhibition of rubber biosynthesis (rubber transferase (RuT); lipoxygenase treatment and AOS inhibition): 30%
